According to patent publication US6897210B2, “Quinazoline derivatives and pharmaceutical compositions containing them” (Zeneca Limited, priority 1996, dated 2005):
Structures can show the parent of a compound that is named as a salt.

Legend:
[1] = test system: VEGF receptor tyrosine kinase (Flt, KDR); assay: In vitro receptor tyrosine kinase inhibition test (VEGF receptor); assay type: biochemical; conditions: VEGF receptor tyrosine kinase compared with EGF receptor tyrosine kinase
Text: (a) In Vitro Receptor Tyrosine Kinase Inhibition Test
This assay determines the ability of a test compound to inhibit tyrosine kinase activity. […] These may then be expressed in a suitable expression system to obtain polypeptide with tyrosine kinase activity. […] This recombinant construct was co-transfected into insect cells (for example Spodoptera frugiperda 21(Sf21)) with viral DNA (eg Pharmingen BaculoGold) to prepare recombinant baculovirus.
For expression of cFlt tyrosine kinase activity, Sf21 cells were infected with plaque-pure cFlt recombinant virus at a multiplicity of infection of 3 and harvested 48 hours later. […] The suspension was centrifuged for 10 minutes at 13,000 rpm at 4° C., the supernatant (enzyme stock) was removed and stored in aliquots at −70° C. Each new batch of stock enzyme was titrated in the assay by dilution with enzyme diluent (100 mM Hepes pH 7.4, 0.2 mM sodium orthovanadate. 0.1% v/v Triton X100, 0.2 mM dithiothreitol). For a typical batch, stock enzyme is diluted 1 in 2000 with enzyme diluent and 50 μl of dilute enzyme is used for each assay well.
A stock of substrate solution was prepared from a random copolymer containing tyrosine, for example Poly (Glu, Ala, Tyr) 6:3:1 (Sigma P3899), stored as 1 mg/ml stock in PBS at −20° C. and diluted 1 in 500 with PBS for plate coating.
On the day of the assay the substrate solution was discarded and the assay plate wells were washed once with PBST (PBS containing 0.05% v/v Tween 20) and once with 50 mM Hepes pH7.4.
Test compounds were diluted with 10% dimethylsulphoxide (DMSO) and 25 μl of diluted compound was transferred to wells in the washed assay plates. “Total” control wells contained 10% DMSO instead of compound. Twenty five microliters of 40 mM manganese(II)chloride containing 8 μM adenosine-5′-triphosphate (ATP) was added to all test wells except “blank” control wells which contained maganese(II)chloride without ATP. To start the reactions 50 μl of freshly diluted enzyme was added to each well and the plates were incubated at room temperature for 20 minutes. The liquid was then discarded and the wells were washed twice with PBST. […] Plates were then incubated for 20-60 minutes at room temperature until the optical density value of the “total” control wells, measured at 405 nm using a plate reading spectrophotometer, was approximately 1.0.

melting point [°C] | activity against VEGF and EGF receptor tyrosine kinases [1] | Structure (SMILES)
206 to 208 |  | COc1cc2ncnc(Nc3ccc(C)c(O)c3)c2c([N+](=O)[O-])c1OC.Cl
> 250 |  | COc1cc2c(Nc3ccc(Cl)cc3F)ncnc2cc1OCCCS(C)(=O)=O (as salt: hydrochloride) [Example 16, 4-(4-chloro-2-fluoroanilino)-6-methoxy-7-(3-(methylsulphonyl)propoxy)quinazoline]
 | substantially equivalent activity | COCCOCCOc1cc2ncnc(Nc3ccc(Cl)cc3F)c2cc1OC.Cl [Example 5, 4-(4-chloro-2-fluoroanilino)6-methoxy-7-(2(2-methoxyethoxy)ethoxy)quinazoline hydrochloride]
 | substantially equivalent activity | COc1cc2c(Nc3ccc(Cl)cc3F)ncnc2cc1OCC1OCCO1 [Example 6, 4-(4-chloro-2-fluoroanilino)-7-(1,3-dioxolan-2-ylmethoxy)-6-methoxyquinazoline]
 | substantially equivalent activity | COc1cc2c(Nc3ccc(Cl)cc3F)ncnc2cc1OCCCS(C)(=O)=O [Example 16, 4-(4-chloro-2-fluoroanilino)-6-methoxy-7-(3-(methylsulphonyl)propoxy)quinazoline]
 | substantially equivalent activity | COc1cc2c(Nc3ccc(Cl)cc3F)ncnc2cc1OC/C=C/CN1CCCC1.Cl [Example 17]
227 to 230 |  | COc1cc2c(Nc3ccc(Cl)cc3F)ncnc2cc1OCCS(C)(=O)=O [Example 30, 4-(4-chloro-2-fluoroanilino)-6-methoxy-7-(2-methylsulphonylethoxy)quinazoline]
 | substantially equivalent activity | COc1cc2c(Nc3ccc(Cl)cc3F)ncnc2cc1OCCCN1CCCC1=O.Cl [Example 47, 4-(4-chloro-2-fluoroanilino)-6-methoxy-7-(3-(2-oxopyrrolidin-1-yl)propoxy)quinazoline hydrochloride]
 | substantially equivalent activity | COc1cc2c(Nc3ccc(Br)cc3F)ncnc2cc1OCCCN1CCCC1=O.Cl [Example 48]
 | substantially equivalent activity | COc1cc2c(Nc3ccc(Br)cc3F)ncnc2cc1OCCCN(C)S(C)(=O)=O.Cl [Example 49, 4(4bromo-2-fluoroanilino)-6-methoxy-7-(3([N-methyl-N-methylsulphonyl]amino)propoxy)quinazoline hydrochloride]
 | substantially equivalent activity | COc1cc2c(Nc3ccc(Br)cc3F)ncnc2cc1OCCCN1CCC[C@H]1C(N)=O.Cl [Example 50, (S)-4-(4-bromo-2-fluoroanilino)-7-(3-(2-carbamoylpyrrolidin-1-yl)propoxy)6-methoxyquinazoline hydrochloride]
 | substantially equivalent activity | COCC(=O)N(C)CCOc1cc2ncnc(Nc3ccc(Cl)cc3F)c2cc1OC.Cl [Example 51, 4-(4-chloro-2-fluoroanilino) methoxy-7-(2-([N-methyl-N-methoxyacetyl]amino)ethoxy)quinazoline hydrochloride]
 | substantially equivalent activity | COc1cc2c(Nc3ccc(Cl)cc3F)ncnc2cc1OCCN1CCOCC1=O.Cl [Example 52, 4-(4-chloro-2-fluoroanilino)6-methoxy-7-(2-(3-oxomorpholino)ethoxy)quinazoline hydrochloride]
 | substantially equivalent activity | COc1cc2c(Nc3ccc(Cl)cc3F)ncnc2cc1OCCOCCN1CCOCC1.Cl [Example 53, 4-(4-chloro-2-fluoroanilino)-6-methoxy-7-(22-morpholinoethoxy)ethoxy)quinazoline hydrochloride]
 | substantially equivalent activity | COc1cc2c(Nc3ccc(Cl)cc3F)ncnc2cc1OCCCN1CCC[C@H]1C(N)=O.Cl [Example 54, (S)-7-(3-(2-carbamoylpyrrolidin-1-yl)propoxy)4-(4-chloro-2-fluoroanilino)-6-methoxyquinazoline hydrochloride]
 | substantially equivalent activity | COc1cc2c(Nc3ccc(Cl)cc3F)ncnc2cc1OCCCN1CC(C)OC(C)C1.Cl (centres unmarked) [Example 55, 4-(4-chloro-2-fluoroanilino)7(3(2,6-dimethylmorpholino)propoxy)6-methoxyquinazoline hydrochloride]
 | substantially equivalent activity | Cl.Fc1cc(Cl)ccc1NCOc1ncnc2cc(SCCCN3CCOCC3)ccc12 [Example 56, 4-(4-chloro-2-fluoroanilino)methoxy-7-(3-morpholinopropylthio)quinazoline hydrochloride]
 | substantially equivalent activity | COc1cc2c(Nc3ccc(Cl)cc3F)ncnc2cc1OCCCN(C)S(C)(=O)=O.Cl [Example 59]
 | substantially equivalent activity | COc1cc2c(Nc3ccc(Cl)cc3F)ncnc2cc1OCCOCCN1CCN(C)CC1.Cl [Example 63]
 | substantially equivalent activity | COc1cc2c(Nc3ccc(Cl)cc3F)ncnc2cc1OCCOCCN1CCCC1.Cl [Example 64, 4-(4-chloro-2-fluoroanilino)-6-methoxy-7-(2-(2-pyrrolidin-1-ylethoxy)ethoxy)quinazoline hydrochloride]
 | substantially equivalent activity | COc1cc2c(Nc3ccc(Cl)cc3F)ncnc2cc1OC/C=C/CN1CCOCC1.Cl [Example 66, (E)-4-(4-chloro-2-fluoroanilino)-6-methoxy-7-(4-morpholinobut-2-en-1-yloxy)quinazoline hydrochloride]
 | substantially equivalent activity | COc1cc2c(Nc3ccc(Br)cc3F)ncnc2cc1OCCN1CCOCC1=O.Cl [Example 67, 4-(4-bromo-2-fluoroanilino)-6-methoxy-7-(2-(3 oxomorpholino)ethoxy)quinazoline hydrochloride]
 | substantially equivalent activity | COc1cc2c(Nc3ccc(Br)cc3F)ncnc2cc1OCCN1CCCC1=O.Cl [Example 68, 4-(4-bromo-2-fluoroanilino)methoxy-7-(2-(2-oxpyrrolidin-1-yl)ethoxy)quinazoline hydrochloride]

Structure (SMILES) | melting point [°C] | activity against VEGF and EGF receptor tyrosine kinases [1]
COc1cc2c(Nc3ccc(Cl)cc3F)ncnc2cc1OCC#CCN1CCOCC1.Cl.O (hydrate or solvate) [Example 10, 4-(4-chloro-2-fluoroanilino)-6-methoxy-7-(4-morpholinobut-2-yn-1-yloxy)quinazoline hydrochloride hydrate] | 175 to 178 | 
COCCOc1cc2ncnc(Nc3ccc(C)c(OC(C)=O)c3)c2cc1OC [Example 1, 4-(3-acetoxy-4-methylanilino)-6-methoxy-7-(2-methoxyethoxy)quinazoline] | 180 to 183 | 
COc1cc2c(Nc3ccc(Cl)cc3F)ncnc2cc1OCC#CCN1CCOCC1.Cl.O [Example 10, 4-(4-chloro-2-fluoroanilino)-6-methoxy-7-(4-morpholinobut-2-yn-1-yloxy)quinazoline hydrochloride hydrate] |  | substantially equivalent activity
